From ChEMBL document CHEMBL2321802, “Identification of Potent and Selective Diphenylpropanamide RORγ Inhibitors” (ACS Med Chem Lett, 2013)
Calls of active or inactive are those of the source. The calls are words filed in the database; no cut-off is given here.

Columns and labels:
Schneider 2 = assay: Antagonist activity at HSV transactivation domain of VP16 expressed in Drosophila Schneider cells co-expressing Gal4-DNA binding domain up to 96 uM; format: cell-based; details: Human alphaherpesvirus 1
[1] = biological target: T1, Probable nuclear hormone receptor HR3 (Drosophila melanogaster) (UniProt P31396); assay: Antagonist activity at Drosophila melanogaster transactivation domain of DHR3 expressed in Drosophila Schneider cells co-expressing Gal4-DNA binding domain up to 96 uM; format: cell-based; details: Schneider 2
T1 sequence (whole entry): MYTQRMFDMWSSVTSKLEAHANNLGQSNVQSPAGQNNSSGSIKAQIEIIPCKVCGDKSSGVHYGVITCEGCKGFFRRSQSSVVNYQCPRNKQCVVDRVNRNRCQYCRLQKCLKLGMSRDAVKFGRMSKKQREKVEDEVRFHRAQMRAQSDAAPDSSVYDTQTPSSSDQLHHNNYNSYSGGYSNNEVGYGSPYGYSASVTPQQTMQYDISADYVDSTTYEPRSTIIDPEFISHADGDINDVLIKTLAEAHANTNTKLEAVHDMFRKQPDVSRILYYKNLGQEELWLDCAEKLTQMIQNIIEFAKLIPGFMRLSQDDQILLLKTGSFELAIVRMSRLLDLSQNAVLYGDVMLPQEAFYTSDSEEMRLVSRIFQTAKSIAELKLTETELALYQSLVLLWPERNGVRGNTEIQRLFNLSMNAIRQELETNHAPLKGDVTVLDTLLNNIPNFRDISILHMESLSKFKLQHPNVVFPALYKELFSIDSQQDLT

[2] = Cytotoxicity against human Th17 cells up to 96 uM; format: cell-based
[3] = biological target: T2, Nuclear receptor ROR-alpha (Homo sapiens) (UniProt P35398); assay: Antagonist activity at transactivation domain of RORalpha (unknown origin) expressed in Drosophila Schneider cells co-expressing Gal4-DNA binding domain up to 96 uM; format: cell-based; details: Schneider 2
T2 sequence (whole entry): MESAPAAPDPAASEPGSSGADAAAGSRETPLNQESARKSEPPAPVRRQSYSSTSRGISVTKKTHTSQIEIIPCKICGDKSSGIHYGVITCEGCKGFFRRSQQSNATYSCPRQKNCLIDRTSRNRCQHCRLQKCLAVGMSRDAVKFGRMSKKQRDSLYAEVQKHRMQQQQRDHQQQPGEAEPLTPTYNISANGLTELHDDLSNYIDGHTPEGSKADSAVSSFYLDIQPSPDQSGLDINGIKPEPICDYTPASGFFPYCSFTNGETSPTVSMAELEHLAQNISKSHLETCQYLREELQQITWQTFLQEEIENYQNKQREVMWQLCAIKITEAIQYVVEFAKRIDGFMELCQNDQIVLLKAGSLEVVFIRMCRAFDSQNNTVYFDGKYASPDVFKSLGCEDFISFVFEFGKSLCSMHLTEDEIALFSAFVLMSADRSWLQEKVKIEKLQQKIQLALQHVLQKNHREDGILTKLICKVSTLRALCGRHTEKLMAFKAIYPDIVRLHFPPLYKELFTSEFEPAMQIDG

[4] = biological target: T3, Nuclear receptor ROR-gamma (Homo sapiens, UniProt P51449); assay: Antagonist activity at transactivation domain of RORgammat (unknown origin) expressed in Drosophila Schneider cells co-expressing Gal4-DNA binding domain; format: cell-based, Schneider 2
T3 sequence (P51449 whole entry): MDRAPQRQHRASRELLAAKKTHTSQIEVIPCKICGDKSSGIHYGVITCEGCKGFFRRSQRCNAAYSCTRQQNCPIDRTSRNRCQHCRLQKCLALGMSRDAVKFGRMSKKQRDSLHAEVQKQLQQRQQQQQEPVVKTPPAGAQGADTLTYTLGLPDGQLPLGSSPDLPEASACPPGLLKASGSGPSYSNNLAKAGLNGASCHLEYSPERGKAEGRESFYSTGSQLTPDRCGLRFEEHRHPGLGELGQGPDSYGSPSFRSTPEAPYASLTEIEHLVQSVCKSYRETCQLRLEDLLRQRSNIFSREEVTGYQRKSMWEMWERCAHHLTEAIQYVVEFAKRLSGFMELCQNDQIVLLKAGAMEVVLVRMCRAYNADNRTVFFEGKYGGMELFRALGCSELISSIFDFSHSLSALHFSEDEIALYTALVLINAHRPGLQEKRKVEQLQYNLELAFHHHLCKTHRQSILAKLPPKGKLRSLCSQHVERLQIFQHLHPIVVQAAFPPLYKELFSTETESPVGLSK

| SMILES | inhibition (Schneider 2) | inhibition [1] | Activity [2] | inhibition [3] | IC50 ([4]; read-out: IC50) [µM] | IC50 ([4]; schneider 2) |
| --- | --- | --- | --- | --- | --- | --- |
| COc1cccc(O)c1C(CC(=O)N1CCCC(C)C1)c1ccc2c(c1)OCO2 (mixture of isomers) | inactive | inactive | Non-toxic | inactive |  |  |
| CCN(CC)C(=O)CC(c1ccc2c(c1)OCO2)c1c(O)cc(OC)cc1OC (stereo unspecified) | inactive | inactive | Non-toxic | inactive | > 50 |  |
| COc1cc(O)c(C(CC(=O)N2C[C@H](C)C[C@H](C)C2)c2ccc(Cl)cc2)c(OC)c1 (stereo partly specified) | inactive | inactive | Non-toxic | inactive |  |  |
| COc1ccc(C(CC(=O)N2CCCC(C)C2)c2c(O)cc(OC)cc2OC)cc1 (mixture of isomers) | inactive | inactive | Non-toxic | inactive | 2.5 |  |
| COc1ccc(C(CC(=O)N2CCCC(C)C2)c2ccc3c(c2)OCO3)c(O)c1 (mixture of isomers) | inactive | inactive | Non-toxic | inactive |  |  |
| C[C@H]1O[C@@H](O[C@H]2[C@@H](O)C[C@H](O[C@H]3[C@@H](O)C[C@H](O[C@H]4CC[C@@]5(C)[C@H](CC[C@@H]6[C@@H]5C[C@@H](O)[C@]5(C)[C@@H](C7=CC(=O)OC7)CC[C@]65O)C4)O[C@@H]3C)O[C@@H]2C)C[C@H](O)[C@@H]1O [DIGOXIN] |  |  |  |  | 2 |  |
| COc1cc(O)c(C(CC(=O)N2CCCCC2C)c2ccc3c(c2)OCO3)c(OC)c1 (mixture of isomers) | inactive | inactive | Non-toxic | inactive |  |  |
| COc1cccc(C(CC(=O)N2C[C@H](C)C[C@H](C)C2)c2c(O)cc(OC)cc2OC)c1 (stereo partly specified) | inactive | inactive | Non-toxic | inactive |  |  |
| COc1ccc(C(CC(=O)N2C[C@H](C)C[C@H](C)C2)c2c(O)cc(OC)cc2OC)cc1 (stereo partly specified) | inactive | inactive | Non-toxic | inactive |  |  |
| COc1cc(OC)c(C(CC(=O)N2CCCC(C)C2)c2ccc3c(c2)OCO3)c(OC)c1 (mixture of isomers) | inactive | inactive | Non-toxic | inactive |  |  |
| COc1cc(O)c(C(CC(=O)N2C[C@H](C)C[C@H](C)C2)c2ccc(C(F)(F)F)cc2)c(OC)c1 (stereo partly specified) | inactive | inactive | Non-toxic | inactive |  |  |
| CC1CCCN(C(=O)CC(c2ccc3c(c2)OCO3)c2cc(-c3ccccc3)ccc2O)C1 (mixture of isomers) | inactive | inactive | Non-toxic | inactive |  |  |
| CCCCNC(=O)CC(c1ccc2c(c1)OCO2)c1c(O)cc(OC)cc1OC (stereo unspecified) | inactive | inactive | Non-toxic | inactive |  |  |
| COc1cc(O)c(C(CC(=O)N2C[C@@H](C)N[C@@H](C)C2)c2ccc3c(c2)OCO3)c(OC)c1 (stereo partly specified) | inactive | inactive | Non-toxic | inactive |  | Not Active |
| COc1cc(O)c(C(CC(=O)Nc2ccc(C)cc2)c2ccc3c(c2)OCO3)c(OC)c1 (stereo unspecified) | inactive | inactive | Non-toxic | inactive | > 50 |  |
| COc1cc(O)c(C(CC(=O)N2CCCCC2)c2ccc3c(c2)OCO3)c(OC)c1 (stereo unspecified) | inactive | inactive | Non-toxic | inactive | 15.7 |  |
| COc1cc(O)c(C(CC(=O)N2C[C@H](C)C[C@H](C)C2)c2ccc(C)cc2)c(OC)c1 (stereo partly specified) | inactive | inactive | Non-toxic | inactive |  |  |
| COc1cc(O)c(C(CC(=O)N2CCCC(C)C2)c2ccc3c(c2)OCO3)c(OC)c1 (mixture of isomers) | inactive | inactive | Non-toxic | inactive | 3.3 |  |
| COc1cc(O)c(C(CC(=O)N2CCC(C)CC2)c2ccc3c(c2)OCO3)c(OC)c1 (stereo unspecified) | inactive | inactive | Non-toxic | inactive |  |  |
| COc1cc(O)c(C(CC(=O)N2CCCC2)c2ccc3c(c2)OCO3)c(OC)c1 (stereo unspecified) | inactive | inactive | Non-toxic | inactive | > 50 |  |
| COc1cc(O)c(C(CC(=O)N2C[C@@H](C)O[C@@H](C)C2)c2ccc3c(c2)OCO3)c(OC)c1 (stereo partly specified) | inactive | inactive | Non-toxic | inactive |  |  |
| COc1cc(O)c(C(CC(=O)N2CCOCC2)c2ccc3c(c2)OCO3)c(OC)c1 (stereo unspecified) | inactive | inactive | Non-toxic | inactive |  | Not Active |
| COc1cc(O)c(C(CC(=O)N2CCCC(C)(C)C2)c2ccc3c(c2)OCO3)c(OC)c1 (stereo unspecified) | inactive | inactive | Non-toxic | inactive |  |  |
| COc1cc(O)c(C(CC(=O)N2CCCCCC2)c2ccc3c(c2)OCO3)c(OC)c1 (stereo unspecified) | inactive | inactive | Non-toxic | inactive |  |  |
